Calls of active or inactive are those of the source. The calls are words filed in the database; no cut-off is given here. Where a SMILES comes first, the peptide text is derived from it.
Key:
[1] = Drug localization in cytoplasm of Escherichia coli ATCC 25922 at 3 times MIC by confocal microscopy; assay type: ADME, subcellular
[2] = Retention time of compound by RP-HPLC method; assay type: physicochemical
Escherichia coli [3] = test: Antibacterial activity against Escherichia coli ATCC 25922 incubated for 16 to 18 hrs by broth dilution assay; assay type: functional; settings: time 16-18 hrs
Klebsiella pneumoniae = test: Antibacterial activity against Klebsiella pneumoniae ATCC 27736 incubated for 16 to 18 hrs by broth dilution assay; assay type: functional; settings: time 16-18 hrs
Pseudomonas aeruginosa = test: Antibacterial activity against Pseudomonas aeruginosa ATCC BAA-427 incubated for 16 to 18 hrs by broth dilution assay; assay type: functional; settings: time 16-18 hrs
Staphylococcus aureus [4] = test: Antibacterial activity against Staphylococcus aureus ATCC 25923 incubated for 16 to 18 hrs by broth dilution assay; assay type: functional; settings: time 16-18 hrs
Bacillus subtilis = test: Antibacterial activity against Bacillus subtilis 6633 incubated for 16 to 18 hrs by broth dilution assay; assay type: functional; settings: time 16-18 hrs
Staphylococcus aureus [5] = test: Antibacterial activity against methicillin-resistant Staphylococcus aureus 33591 incubated for 16 to 18 hrs by broth dilution assay; assay type: functional; settings: time 16-18 hrs
Staphylococcus aureus [6] = test: Antibacterial activity against methicillin-resistant Staphylococcus aureus BAA-44 incubated for 16 to 18 hrs by broth dilution assay; assay type: functional; settings: time 16-18 hrs
[7] = Hemolytic activity in human RBC measured after 40 mins by absorbance based assay; assay type: toxicity, cell-based, Erythrocyte; settings: human red blood cells
Escherichia coli [8] = test: Bactericidal activity against Escherichia coli ATCC 25922 incubated for 16 to 18 hrs; assay type: functional; settings: time 16-18 hrs
Escherichia coli [9] = test: Antibacterial activity against Escherichia coli ATCC 25922 incubated for 16 to 18 hrs in presence of 10 percent human serum by broth dilution assay; assay type: functional; settings: time 16-18 hrs
Staphylococcus aureus [10] = test: Bactericidal activity against Staphylococcus aureus ATCC 25923 incubated for 16 to 18 hrs; assay type: functional; settings: time 16-18 hrs
Staphylococcus aureus [11] = test: Antibacterial activity against Staphylococcus aureus ATCC 25923 incubated for 16 to 18 hrs in presence of 10 percent human serum by broth dilution assay; assay type: functional; settings: time 16-18 hrs
[12] = Cytotoxicity against mouse 3T3-L1 cells assessed as cell viability at 100 uM incubated for 24 hrs by MTT assay relative to control; assay type: toxicity, cell-based; settings: 3T3-L1 cells, read-out: Activity
[13] = Cytotoxicity against rat L6 cells assessed as cell viability at 100 uM incubated for 24 hrs by MTT assay relative to control; assay type: toxicity, cell-based; settings: L6 cells, read-out: Activity
Escherichia coli [14] = test: Bactericidal activity against Escherichia coli ATCC 25922 at MIC incubated for about 100 mins by time kill assay relative to control; assay type: functional; settings: 1.667 h
Staphylococcus aureus [15] = test: Bactericidal activity against Staphylococcus aureus ATCC 25923 at MIC incubated for about 135 mins by time kill assay relative to control; assay type: functional; settings: 2.25 h
Escherichia coli [16] = test: Induction of membrane depolarization in Escherichia coli ATCC 25922 by diSC3-5 dye based analysis; assay type: functional, organism-based
Staphylococcus aureus [17] = test: Induction of membrane depolarization in Staphylococcus aureus ATCC 25923 by diSC3-5 dye based analysis; assay type: functional, organism-based
Escherichia coli [18] = test: Disruption of plasma membrane integrity in Escherichia coli ATCC 25922 by SYTOX-Green uptake assay; assay type: functional, organism-based
Staphylococcus aureus [19] = test: Disruption of plasma membrane integrity in Staphylococcus aureus ATCC 25923 by SYTOX-Green uptake assay; assay type: functional, organism-based
Escherichia coli [20] = test: Disruption of membrane integrity in Escherichia coli ATCC 25922 by PI staining based analysis; assay type: functional, organism-based
Staphylococcus aureus [21] = test: Disruption of membrane integrity in Staphylococcus aureus ATCC 25923 by PI staining based analysis; assay type: functional, organism-based
[22] = Hemolytic activity in human RBC assessed as disruption of membrane integrity by Alexa Fluor-Annexin V staining based analysis; assay type: toxicity, cell-based; settings: erythrocyte
Escherichia coli [23] = test: Induction of cell membrane damage in Escherichia coli ATCC 25922 at 3 times MIC incubated for 60 mins by SEM analysis; assay type: functional, organism-based
Staphylococcus aureus [24] = test: Induction of cell membrane damage in Staphylococcus aureus ATCC 25923 at 3 times MIC incubated for 60 mins by SEM analysis; assay type: functional, organism-based
[25] = tested on: Mycolicibacterium smegmatis; test: Antitubercular activity against Mycobacterium smegmatis incubated for 24 hrs by rezasurin dye based assay; assay type: functional

CC(C)C[C@H](NC(=O)[C@H](CCCNC(=N)N)NC(=O)CNC(=O)[C@H](CC(C)C)NC(=O)[C@H](CCCNC(=N)N)NC(=O)CNC(=O)[C@H](CC(C)C)NC(=O)[C@H](CCCNC(=N)N)NC(=O)CNC(=O)[C@H](CC(C)C)NC(=O)[C@H](CCCNC(=N)N)NC(=O)CNC(=O)[C@H](CC(C)C)NC(=O)[C@H](CCCNC(=N)N)NC(=O)CNC(=O)c1cc(C(=O)O)ccc1-c1c2ccc(=[N+](C)C)cc-2oc2cc(N(C)C)ccc12)C(=O)O.[Cl-] (HELM PEPTIDE1{[CN(C)c1ccc2c(-c3ccc(C(=O)O)cc3C(=O)[*:2])c3ccc(=[N+](C)C)cc-3oc2c1].G.R.L.G.R.L.G.R.L.G.R.L.G.R.L}$$$$V2.0)
Drug uptake [1]: Active

H-GRLGRLGRLGRLGRL-OH
Retention_time [2]: 16.17 min
MIC (Escherichia coli [3]): 3.8 µM
MIC (Klebsiella pneumoniae): 60.6 µM
MIC (Pseudomonas aeruginosa): 15.2 µM
MIC (Staphylococcus aureus [4]): 3.8 µM
MIC (Bacillus subtilis): 15.2 µM
MIC (Staphylococcus aureus [5]): 15.2 µM
MIC (Staphylococcus aureus [6]): 15.2 µM
HC50 at 40 min [7]: 2 mM
MBC (Escherichia coli [8]): 15.2 µM
MIC (Escherichia coli [9]): 15.2 µM
MBC (Staphylococcus aureus [10]): 7.6 µM
MIC (Staphylococcus aureus [11]): 15.2 µM
viability at 24 h, 100 µM [12]: > 80%
viability at 24 h, 100 µM [13]: > 80%
Activity (Escherichia coli [14]): 100%
Activity (Staphylococcus aureus [15]): 100%
Activity (Escherichia coli [16]): inactive
Activity (Staphylococcus aureus [17]): inactive
Activity (Escherichia coli [18]): inactive
Activity (Staphylococcus aureus [19]): inactive
Activity (Escherichia coli [20]): inactive
Activity (Staphylococcus aureus [21]): inactive
Activity [22]: Non-toxic
Activity (Escherichia coli [23]): inactive
Activity (Staphylococcus aureus [24]): inactive
MIC [25]: 5 µM

From ChEMBL document CHEMBL6087460, “Generating a Peptide Library Using the Repeats of Amino Acid Scaffolds Created by Sliding the Framework of a 7-mer Human Chemerin Segment and Discovery of Potent Antibacterial and Antimycobacterial Peptides” (J Med Chem, 2025)
